Measured values: ChEMBL document CHEMBL2380214, “Novel hybrids of (phenylsulfonyl)furoxan and anilinopyrimidine as potent and selective epidermal growth factor receptor inhibitors for intervention of non-small-cell lung cancer” (J Med Chem, 2013)
Activity calls are given as the source filed them. The rule behind the calls is not given here.

Legend:
[1] = Selectivity ratio of IC50 for human A431 cells overexpressing wild type EGFR to IC50 for gefitinib-resistant human NCI-H1975 cells harboring EGFR L858R/[…] double mutant; assay type: ADME, cell-based
[2] = Induction of NO production in human 16HBE14o- cells harboring wild type EGFR assessed as increase in nitrite level at 100 uM after 150 mins by Griess assay; assay type: cell-based; details: 2.5 h
[3] = target: Epidermal growth factor receptor (Homo sapiens, UniProt P00533, L858R); assay type: protein assay
Sequence of Epidermal growth factor receptor (Homo sapiens, UniProt P00533, L858R) (P00533 25-1210 L858R limits assumed): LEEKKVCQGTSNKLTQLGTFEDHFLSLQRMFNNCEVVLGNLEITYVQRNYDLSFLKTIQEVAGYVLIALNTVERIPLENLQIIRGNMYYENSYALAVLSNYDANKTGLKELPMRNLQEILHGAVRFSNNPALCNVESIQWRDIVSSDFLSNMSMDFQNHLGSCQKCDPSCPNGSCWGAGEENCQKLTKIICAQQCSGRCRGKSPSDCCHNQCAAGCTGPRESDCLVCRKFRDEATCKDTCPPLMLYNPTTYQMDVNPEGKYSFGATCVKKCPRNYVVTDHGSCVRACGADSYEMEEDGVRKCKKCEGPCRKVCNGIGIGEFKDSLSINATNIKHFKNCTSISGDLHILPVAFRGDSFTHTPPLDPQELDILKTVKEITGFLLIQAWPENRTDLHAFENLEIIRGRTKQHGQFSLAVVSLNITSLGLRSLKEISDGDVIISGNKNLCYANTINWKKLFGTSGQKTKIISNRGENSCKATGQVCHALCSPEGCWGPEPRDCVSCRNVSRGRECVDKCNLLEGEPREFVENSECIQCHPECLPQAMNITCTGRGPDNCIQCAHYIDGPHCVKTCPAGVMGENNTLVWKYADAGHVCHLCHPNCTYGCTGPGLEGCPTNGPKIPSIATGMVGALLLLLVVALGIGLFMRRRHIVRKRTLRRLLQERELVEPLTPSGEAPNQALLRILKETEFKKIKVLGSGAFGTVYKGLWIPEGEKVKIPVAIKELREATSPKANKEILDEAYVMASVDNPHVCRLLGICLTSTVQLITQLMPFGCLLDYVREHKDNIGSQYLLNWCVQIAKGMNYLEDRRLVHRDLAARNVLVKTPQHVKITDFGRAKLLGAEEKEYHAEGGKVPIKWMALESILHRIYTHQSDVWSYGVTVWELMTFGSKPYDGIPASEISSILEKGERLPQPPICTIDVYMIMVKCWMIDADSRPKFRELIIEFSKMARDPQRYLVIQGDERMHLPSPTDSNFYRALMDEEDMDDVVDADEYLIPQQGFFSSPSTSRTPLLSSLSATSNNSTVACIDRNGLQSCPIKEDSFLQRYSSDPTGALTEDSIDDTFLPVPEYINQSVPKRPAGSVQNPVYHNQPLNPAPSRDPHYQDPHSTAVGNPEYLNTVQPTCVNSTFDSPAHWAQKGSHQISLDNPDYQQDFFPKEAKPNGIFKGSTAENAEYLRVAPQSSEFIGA
Description: Inhibition of EGFR L858R mutant (unknown origin) after 1.5 hrs by FRET-based Z'Lyte assay

[4] = target: Epidermal growth factor receptor (Homo sapiens, UniProt P00533, L858R/T790M); assay type: protein assay
Sequence of Epidermal growth factor receptor (Homo sapiens, UniProt P00533, L858R/T790M) (P00533 25-1210 T790M/L858R limits assumed): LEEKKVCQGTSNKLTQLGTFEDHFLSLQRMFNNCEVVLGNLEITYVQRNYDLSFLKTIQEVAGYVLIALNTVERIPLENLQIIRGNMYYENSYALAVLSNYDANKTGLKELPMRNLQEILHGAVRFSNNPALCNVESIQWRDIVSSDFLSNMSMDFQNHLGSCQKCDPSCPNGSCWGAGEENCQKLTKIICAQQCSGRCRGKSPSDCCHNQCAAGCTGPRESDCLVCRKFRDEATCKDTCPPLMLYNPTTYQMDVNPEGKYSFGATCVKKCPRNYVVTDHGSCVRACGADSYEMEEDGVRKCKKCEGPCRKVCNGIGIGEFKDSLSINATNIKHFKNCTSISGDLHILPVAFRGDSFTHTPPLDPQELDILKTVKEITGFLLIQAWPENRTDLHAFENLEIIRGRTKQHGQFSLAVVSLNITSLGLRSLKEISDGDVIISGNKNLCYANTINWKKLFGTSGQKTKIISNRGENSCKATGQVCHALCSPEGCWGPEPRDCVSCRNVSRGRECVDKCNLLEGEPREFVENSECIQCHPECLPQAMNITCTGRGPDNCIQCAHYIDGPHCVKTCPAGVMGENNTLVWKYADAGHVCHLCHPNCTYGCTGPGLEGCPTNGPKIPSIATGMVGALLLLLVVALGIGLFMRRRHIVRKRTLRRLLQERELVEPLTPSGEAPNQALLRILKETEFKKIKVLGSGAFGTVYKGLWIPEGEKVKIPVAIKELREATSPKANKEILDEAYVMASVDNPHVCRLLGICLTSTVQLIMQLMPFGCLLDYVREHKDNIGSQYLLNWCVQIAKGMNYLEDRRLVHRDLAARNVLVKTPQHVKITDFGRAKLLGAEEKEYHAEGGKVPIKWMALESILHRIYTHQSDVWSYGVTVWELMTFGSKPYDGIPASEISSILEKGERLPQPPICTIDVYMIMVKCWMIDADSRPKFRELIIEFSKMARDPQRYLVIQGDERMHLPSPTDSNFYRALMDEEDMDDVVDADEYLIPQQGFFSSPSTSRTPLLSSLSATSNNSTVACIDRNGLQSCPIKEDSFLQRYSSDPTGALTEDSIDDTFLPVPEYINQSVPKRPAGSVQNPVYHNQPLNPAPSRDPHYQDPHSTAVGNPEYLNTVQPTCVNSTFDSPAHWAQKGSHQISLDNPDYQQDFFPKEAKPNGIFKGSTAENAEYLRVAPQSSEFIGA
Description: Inhibition of EGFR L858R/T790M double mutant (unknown origin) after 1.5 hrs by FRET-based Z'Lyte assay

[5] = tested on: A549; assay: cells; assay type: ADME, cell-based; details: Homo sapiens, A549, 72 h
Description: Cytotoxicity against human A549 cells harboring wild type EGFR and k-RAS mutation assessed as growth inhibition after 72 hrs by MTT assay

[6] = tested on: Epidermal growth factor receptor (Homo sapiens), P00533 [L858R,T790M]; assay: Inhibition of EGFR L858R/[…] double mutant phosphorylation in gefitinib-resistant human NCI-H1975 cells assessed as inhibition of AKT phosphorylation after 24 hrs by Western blot analysis; assay type: cell-based
Sequence of Epidermal growth factor receptor (Homo sapiens), P00533 [L858R,T790M] (P00533 whole entry T790M/L858R, looked up): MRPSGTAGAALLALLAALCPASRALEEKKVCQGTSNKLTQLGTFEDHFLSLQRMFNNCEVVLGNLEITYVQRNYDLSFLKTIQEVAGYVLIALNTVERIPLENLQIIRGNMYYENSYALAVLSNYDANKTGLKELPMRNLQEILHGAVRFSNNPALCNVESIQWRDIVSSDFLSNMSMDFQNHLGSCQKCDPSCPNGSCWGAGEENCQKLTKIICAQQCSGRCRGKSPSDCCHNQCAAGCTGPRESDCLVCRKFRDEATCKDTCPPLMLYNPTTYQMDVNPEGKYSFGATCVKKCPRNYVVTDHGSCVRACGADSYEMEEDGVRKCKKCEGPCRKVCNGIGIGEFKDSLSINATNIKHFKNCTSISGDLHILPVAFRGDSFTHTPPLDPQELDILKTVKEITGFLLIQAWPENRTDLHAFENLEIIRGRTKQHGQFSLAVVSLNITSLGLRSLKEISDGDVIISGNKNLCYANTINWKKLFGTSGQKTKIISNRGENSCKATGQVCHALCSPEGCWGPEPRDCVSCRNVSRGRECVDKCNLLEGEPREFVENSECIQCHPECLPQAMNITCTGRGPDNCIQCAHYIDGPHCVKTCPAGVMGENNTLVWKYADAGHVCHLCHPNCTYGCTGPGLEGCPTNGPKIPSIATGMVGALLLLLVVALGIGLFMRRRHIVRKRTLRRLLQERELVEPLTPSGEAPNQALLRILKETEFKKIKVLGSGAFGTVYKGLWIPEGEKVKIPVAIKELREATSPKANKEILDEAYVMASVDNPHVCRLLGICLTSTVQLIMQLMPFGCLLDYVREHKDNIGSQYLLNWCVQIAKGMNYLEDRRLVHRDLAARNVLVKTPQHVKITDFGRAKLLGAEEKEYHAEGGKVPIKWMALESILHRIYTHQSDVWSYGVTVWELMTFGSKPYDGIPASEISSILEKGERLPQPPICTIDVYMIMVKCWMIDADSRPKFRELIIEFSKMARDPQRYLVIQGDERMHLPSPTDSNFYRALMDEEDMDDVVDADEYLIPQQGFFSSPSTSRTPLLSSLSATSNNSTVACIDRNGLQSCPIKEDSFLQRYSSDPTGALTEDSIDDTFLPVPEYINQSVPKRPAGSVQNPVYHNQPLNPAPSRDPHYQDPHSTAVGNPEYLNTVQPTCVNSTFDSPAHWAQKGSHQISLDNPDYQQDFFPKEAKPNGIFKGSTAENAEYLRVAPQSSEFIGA

[7] = cells; assay type: ADME, cell-based; details: Homo sapiens, 16HBE14o-, 72 h
Description: Cytotoxicity against human 16HBE14o- cells harboring wild type EGFR assessed as growth inhibition after 72 hrs by MTT assay

[8] = Selectivity ratio of IC50 for human 16HBE14o- cells harboring wild type EGFR to IC50 for gefitinib-sensitive human HCC827 cells harboring EGFR […] deletion mutant; assay type: ADME, cell-based; details: read-out: Ratio IC50
[9] = Selectivity ratio of IC50 for human A549 cells harboring wild type EGFR and k-RAS mutation to IC50 for gefitinib-sensitive human HCC827 cells harboring EGFR […] deletion mutant; assay type: ADME, cell-based
[10] = target: Epidermal growth factor receptor (Homo sapiens, UniProt P00533)
Sequence of Epidermal growth factor receptor (Homo sapiens, UniProt P00533) (P00533 whole entry): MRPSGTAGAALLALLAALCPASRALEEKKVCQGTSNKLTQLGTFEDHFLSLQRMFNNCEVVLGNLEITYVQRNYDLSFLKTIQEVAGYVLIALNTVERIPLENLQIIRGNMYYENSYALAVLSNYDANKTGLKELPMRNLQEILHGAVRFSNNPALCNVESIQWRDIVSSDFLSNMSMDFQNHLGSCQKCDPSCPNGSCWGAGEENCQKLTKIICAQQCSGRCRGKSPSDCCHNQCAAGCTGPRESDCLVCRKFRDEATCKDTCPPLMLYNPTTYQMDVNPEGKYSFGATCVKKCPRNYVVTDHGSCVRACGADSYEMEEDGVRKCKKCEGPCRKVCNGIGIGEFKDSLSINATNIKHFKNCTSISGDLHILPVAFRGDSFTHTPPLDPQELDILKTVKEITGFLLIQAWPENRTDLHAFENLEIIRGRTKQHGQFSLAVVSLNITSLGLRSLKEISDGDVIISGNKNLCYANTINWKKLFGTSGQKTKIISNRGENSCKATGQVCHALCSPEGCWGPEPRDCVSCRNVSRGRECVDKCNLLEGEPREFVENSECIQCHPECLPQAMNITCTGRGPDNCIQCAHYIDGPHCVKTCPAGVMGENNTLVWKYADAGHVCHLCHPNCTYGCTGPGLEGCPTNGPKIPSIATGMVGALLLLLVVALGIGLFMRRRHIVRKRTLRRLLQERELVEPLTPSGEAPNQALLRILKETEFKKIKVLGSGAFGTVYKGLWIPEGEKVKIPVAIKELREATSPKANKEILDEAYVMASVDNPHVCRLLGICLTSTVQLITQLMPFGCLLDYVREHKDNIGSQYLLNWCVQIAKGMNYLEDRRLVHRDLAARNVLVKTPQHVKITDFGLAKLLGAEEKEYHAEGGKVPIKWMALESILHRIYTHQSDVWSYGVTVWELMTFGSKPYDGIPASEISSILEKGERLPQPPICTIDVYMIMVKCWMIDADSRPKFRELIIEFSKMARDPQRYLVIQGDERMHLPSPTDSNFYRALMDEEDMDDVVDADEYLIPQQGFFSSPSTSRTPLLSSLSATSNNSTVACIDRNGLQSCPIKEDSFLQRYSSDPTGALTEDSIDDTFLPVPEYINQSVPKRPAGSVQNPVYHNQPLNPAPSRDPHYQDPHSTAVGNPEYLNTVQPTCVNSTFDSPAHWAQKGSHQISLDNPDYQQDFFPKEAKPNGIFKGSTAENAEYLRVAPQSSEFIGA
Description: Inhibition of wild type EGFR (unknown origin) after 1.5 hrs by FRET-based Z'Lyte assay

[11] = tested on: Mus musculus; assay: Toxicity in athymic BALB/c nude mouse xenografted with gefitinib-resistant human NCI-H1975 cells harboring EGFR L858R/[…] double mutant assessed as body mass loss at 14 mg/kg, ip qd administered for 14 days measured every other day during compound administration relative to vehicle-treated control; assay type: organism-based; parameters: dose 14 mg/kg, route intraperitoneal; details: in vivo, 336 h
[12] = Selectivity ratio of IC50 for human A431 cells overexpressing wild type EGFR to IC50 for gefitinib-sensitive human HCC827 cells harboring EGFR […] deletion mutant; assay type: ADME, cell-based
[13] = tested on: NCI-H1975; assay: Induction of apoptosis in gefitinib-resistant human NCI-H1975 cells harboring EGFR L858R/[…] double mutant after 24 hrs by annexin-V/7-AAD staining-based FACS flow cytometric analysis; assay type: functional, cell-based
[14] = tested on: A549; assay: Ratio of compound IC50 to WZ4002 IC50 for human A549 cells harboring wild type EGFR and k-RAS mutation; assay type: ADME, cell-based
[15] = Ratio of compound IC50 to WZ4002 IC50 for human BEAS2B cells harboring wild type EGFR; assay type: ADME, cell-based; details: read-out: Ratio IC50
[16] = Selectivity ratio of IC50 for human BEAS2B cells harboring wild type EGFR to IC50 for gefitinib-resistant human NCI-H1975 cells harboring EGFR L858R/[…] double mutant; assay type: ADME, cell-based; details: read-out: Ratio IC50
[17] = tested on: HCC827; assay: Induction of apoptosis in gefitinib-sensitive human HCC827 cells harboring EGFR […] deletion mutant after 24 hrs by annexin-V/7-AAD staining-based FACS flow cytometric analysis; assay type: functional, cell-based
[18] = tested on: NCI-H1975; assay: Cytotoxicity against gefitinib-resistant human NCI-H1975 cells harboring EGFR L858R/[…] double mutant assessed as growth inhibition after 72 hrs by MTT assay; assay type: functional, cell-based; details: NCI-H1975, 72 h
[19] = Induction of apoptosis in EGFR-independent human H460 cells at 1 to 5 uM after 24 hrs by annexin-V/7-AAD staining-based FACS flow cytometric analysis; assay type: cell-based; details: nci-h460, 24 h
[20] = tested on: HCC827; assay: Cytotoxicity against gefitinib-sensitive human HCC827 cells harboring EGFR […] deletion mutant assessed as growth inhibition at 1 uM after 24 hrs by MTT assay in presence of hemoglobin; assay type: functional, cell-based
[21] = cells; assay type: ADME, cell-based; details: Homo sapiens, BEAS-2B, 72 h
Description: Cytotoxicity against human BEAS2B cells harboring wild type EGFR assessed as growth inhibition after 72 hrs by MTT assay

[22] = tested on: Epidermal growth factor receptor (Homo sapiens), P00533 [L858R,T790M]; assay: Inhibition of EGFR L858R/[…] double mutant phosphorylation in gefitinib-resistant human NCI-H1975 cells after 24 hrs by Western blot analysis; assay type: cell-based
[23] = Selectivity ratio of IC50 for human A549 cells harboring wild type EGFR and k-RAS mutation to IC50 for gefitinib-resistant human NCI-H1975 cells harboring EGFR L858R/[…] double mutant; assay type: ADME, cell-based
[24] = tested on: NCI-H1975; assay: Inhibition of NFkappaB phosphorylation in gefitinib-resistant human NCI-H1975 cells harboring EGFR L858R/[…] double mutant at 0.01 to 1 uM after 24 hrs by Western blot analysis; assay type: cell-based
[25] = cells; assay type: functional, cell-based; details: Homo sapiens, HCC827, 72 h
[26] = tested on: NCI-H1975; assay: Cytotoxicity against gefitinib-resistant human NCI-H1975 cells harboring EGFR L858R/[…] double mutant assessed as growth inhibition at 1 uM after 24 hrs by MTT assay in presence of hemoglobin; assay type: functional, cell-based
[27] = tested on: Epidermal growth factor receptor (Homo sapiens), P00533 [L858R,T790M]; assay: Inhibition of EGFR L858R/[…] double mutant phosphorylation in gefitinib-resistant human NCI-H1975 cells assessed as inhibition of ERK phosphorylation after 24 hrs by Western blot analysis; assay type: cell-based
[28] = Selectivity ratio of IC50 for human BEAS2B cells harboring wild type EGFR to IC50 for gefitinib-sensitive human HCC827 cells harboring EGFR […] deletion mutant; assay type: ADME, cell-based; details: read-out: Ratio IC50
[29] = tested on: NCI-H1975; assay: Induction of NO production in human NCI-H1975 cells harboring EGFR L858R/[…] double mutant assessed as increase in nitrite level at 100 uM after 150 mins by Griess assay; assay type: functional, cell-based
[30] = tested on: A-431; assay: Ratio of compound IC50 to WZ4002 IC50 for human A431 cells overexpressing wild type EGFR; assay type: ADME, cell-based
[31] = tested on: NCI-H1975; assay: Antitumor activity against gefitinib-resistant human NCI-H1975 cells harboring EGFR L858R/[…] double mutant xenografted in athymic BALB/c nude mouse assessed as tumor growth inhibition at 14 mg/kg, ip qd administered for 14 days measured every other day during compound administration relative to vehicle-treated control; assay type: functional; details: 336 h, route intraperitoneal, read-out: TGI
[32] = tested on: A-431; assay: cells; assay type: ADME, cell-based; details: Homo sapiens, A-431, 72 h
Description: Cytotoxicity against human A431 cells overexpressing wild type EGFR assessed as growth inhibition after 72 hrs by MTT assay

[33] = Selectivity ratio of IC50 for human 16HBE14o- cells harboring wild type EGFR to IC50 for gefitinib-resistant human NCI-H1975 cells harboring EGFR L858R/[…] double mutant; assay type: ADME, cell-based; details: read-out: Ratio IC50

- IC50 [3]: 305 nM
- IC50 [4]: 47 nM
- IC50 [5]: > 50000 nM
- inhibition [6]: Dose-dependent effect
- IC50 [7]: 23900 nM
- IC50 [10]: 292 nM
- IC50 [21]: 44600 nM
- inhibition [22]: Dose-dependent effect
- IC50 [25]: 7 nM
- inhibition [27]: Dose-dependent effect
- IC50 [32]: 5670 nM
SMILES: C=CC(=O)Nc1cccc(Oc2nc(Nc3ccc(N4CCN(CC(=O)OCCCCCCOc5no[n+]([O-])c5S(=O)(=O)c5ccccc5)CC4)cc3OC)ncc2Cl)c1
- Ratio IC50 [1]: 60
- Activity [2]: Non-toxic
- selectivity ratio [8]: 40
- Ratio IC50 [9]: 60
- Activity [11]: Non-toxic
- Ratio IC50 [12]: 60
- Activity [13]: Dose-dependent effect
- Ratio IC50 [14]: 5
- selectivity ratio [15]: 5
- selectivity ratio [16]: 40
- Activity [17]: Dose-dependent effect
- IC50 [18]: 29 nM
- Activity [19]: Non-toxic
- growth inhibition (GI) [20]: inactive
- Ratio IC50 [23]: 60
- inhibition [24]: Active
- growth inhibition (GI) [26]: inactive
- selectivity ratio [28]: 40
- Activity [29]: Active
- Ratio IC50 [30]: 5
- inhibition in vivo at 14 mg/kg [31]: 60%
- selectivity ratio [33]: 40
